Laboratory results published in patent US20250144094A1 (Erasca, Inc., priority 2021, published 2025).

These compounds were tested against Recombinant human ULK1 (1-649) (Homo sapiens (Human), UniProt O75385) (assay: ULK1 ADP Glo kinase activity assay, new method (ULKtide peptide substrate)). Conditions: 25° C., 40 minutes, read-out: ULK1 biochemical IC50.
Chain of Recombinant human ULK1 (1-649) (O75385 1-649): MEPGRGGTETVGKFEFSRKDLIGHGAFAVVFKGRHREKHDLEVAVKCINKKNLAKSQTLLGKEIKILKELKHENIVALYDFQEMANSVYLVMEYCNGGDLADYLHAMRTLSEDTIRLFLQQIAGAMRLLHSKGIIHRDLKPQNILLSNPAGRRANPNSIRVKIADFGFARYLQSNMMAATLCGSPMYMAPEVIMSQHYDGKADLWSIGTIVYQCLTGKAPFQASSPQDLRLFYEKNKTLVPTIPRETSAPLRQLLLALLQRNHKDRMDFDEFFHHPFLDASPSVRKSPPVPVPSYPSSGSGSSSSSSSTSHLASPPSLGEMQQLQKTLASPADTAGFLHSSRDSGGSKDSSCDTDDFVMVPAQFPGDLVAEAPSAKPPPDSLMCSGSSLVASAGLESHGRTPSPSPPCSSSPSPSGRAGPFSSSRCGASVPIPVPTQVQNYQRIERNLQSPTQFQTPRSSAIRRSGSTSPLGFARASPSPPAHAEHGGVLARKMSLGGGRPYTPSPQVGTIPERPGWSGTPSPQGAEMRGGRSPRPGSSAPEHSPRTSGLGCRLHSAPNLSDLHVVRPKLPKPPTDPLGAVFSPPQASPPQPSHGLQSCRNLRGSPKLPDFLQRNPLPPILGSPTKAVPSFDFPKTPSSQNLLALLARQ
In short: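 GST-tagged human ULK1 (1-649) from Sf9 cells was reacted with ULKtide peptide and ATP for 40 min at 25 °C across 12-point compound dilutions from 10 μM. ADP formed was quantified by ADP-Glo luminescence; IC50 came from four-parameter fits relative to DMSO controls.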
`C[C@H]1CN(c2ccc(Nc3ncc(C(F)(F)F)c(-c4cc5c(s4)C(=O)N(C4COC4)CCS5(=O)=O)n3)c(C3CC3)c2)CCN1` [Example 341, (S)-7-(2-((2-Cyclopropyl-4-(3-methylpiperazin-1-yl)phenyl)amino)-5-(trifluoromethyl)pyrimidin-4-yl)-4-(oxetan-3-yl)-3,4-dihydrothieno[2,3-f][1,4]thiazepin-5(2H)-one 1,1-dioxide] was tested, and the IC50 was no more than 5 nM. `C[C@H]1CN(c2ccc(Nc3ncc(C(F)(F)F)c(-c4cc5c(s4)C(=O)N(C4COC4)CCS5(=O)=O)n3)c(C3CC3)c2)CCN1C` [Example 342, (S)-7-(2-((2-cyclopropyl-4-(3,4-dimethylpiperazin-1-yl)phenyl)amino)-5-(trifluoromethyl)pyrimidin-4-yl)-4-(oxetan-3-yl)-3,4-dihydrothieno[2,3-f][1,4]thiazepin-5(2H)-one 1,1-dioxide] gave an IC50 of no more than 5 nM. Work on `C[C@@H]1CN(c2ccc(Nc3ncc(C(F)(F)F)c(-c4cc5c(s4)C(=O)N(C4CC4)CCS5(=O)=O)n3)c(C3CC3)c2)C[C@H](C)N1C` [Example 343, 4-Cyclopropyl-7-(2-((2-cyclopropyl-4-((3S,5R)-3,4,5-trimethylpiperazin-1-yl)phenyl)amino)-5-(trifluoromethyl)pyrimidin-4-yl)-3,4-dihydrothieno[2,3-f][1,4]thiazepin-5(2H)-one 1,1-dioxide] yielded an IC50 of no more than 5 nM. Compound `C[C@H]1CN(c2ccc(Nc3ncc(C(F)(F)F)c(-c4cc5c(s4)C(=O)N(C4COC4)CCS5(=O)=O)n3)c(C3CC3)c2)C[C@H](C)N1` [Example 344, 7-(2-((2-Cyclopropyl-4-((3S,5S)-3,5-dimethylpiperazin-1-yl)phenyl)amino)-5-(trifluoromethyl)pyrimidin-4-yl)-4-(oxetan-3-yl)-3,4-dihydrothieno[2,3-f][1,4]thiazepin-5(2H)-one 1,1-dioxide] has an IC50 of no more than 5 nM. `O=C1c2sc(-c3nc(Nc4ccc(N5CCN[C@@H](CO)C5)cc4C4CC4)ncc3C(F)(F)F)cc2S(=O)(=O)CCN1C1CC1` [Example 345, (R)-4-cyclopropyl-7-(2-((2-cyclopropyl-4-(3-(hydroxymethyl)piperazin-1-yl)phenyl)amino)-5-(trifluoromethyl)pyrimidin-4-yl)-3,4-dihydrothieno[2,3-f][1,4]thiazepin-5(2H)-one 1,1-dioxide] was tested, and the IC50 was no more than 5 nM. In the case of `CCc1cc(N2C[C@@H]3C[C@H]2CN3C)ccc1Nc1ncc(C(F)(F)F)c(-c2cc3c(s2)C(=O)N(C2COC2)CCS3(=O)=O)n1` [Example 346, 7-(2-((2-Ethyl-4-((1S,4S)-5-methyl-2,5-diazabicyclo[2.2.1]heptan-2-yl)phenyl)amino)-5-(trifluoromethyl)pyrimidin-4-yl)-4-(oxetan-3-yl)-3,4-dihydrothieno[2,3-f][1,4]thiazepin-5(2H)-one 1,1-dioxide], the IC50 is reported as 5 to 10 nM. `CCc1cc(N2C[C@H]3C[C@@H]2CN3C)ccc1Nc1ncc(C(F)(F)F)c(-c2cc3c(s2)C(=O)N(C2COC2)CCS3(=O)=O)n1` [Example 347, 7-(2-((2-ethyl-4-((1R,4R)-5-methyl-2,5-diazabicyclo[2.2.1]heptan-2-yl)phenyl)amino)-5-(trifluoromethyl)pyrimidin-4-yl)-4-(oxetan-3-yl)-3,4-dihydrothieno[2,3-f][1,4]thiazepin-5(2H)-one 1,1-dioxide] showed an IC50 of no more than 5 nM. With `CCc1cc(N2C[C@H]3CC[C@@H](C2)N3C)ccc1Nc1ncc(C(F)(F)F)c(-c2cc3c(s2)C(=O)N(C2COC2)CCS3(=O)=O)n1` [Example 348, 7-(2-((2-ethyl-4-((1R,5S)-8-methyl-3,8-diazabicyclo[3.2.1]octan-3-yl)phenyl)amino)-5-(trifluoromethyl)pyrimidin-4-yl)-4-(oxetan-3-yl)-3,4-dihydrothieno[2,3-f][1,4]thiazepin-5(2H)-one 1,1-dioxide] the IC50 was no more than 5 nM. Work on `CN1C2CC1CN(c1ccc(Nc3ncc(C(F)(F)F)c(-c4cc5c(s4)C(=O)N(C4COC4)CCS5(=O)=O)n3)c(C3CC3)c1)C2` [Example 349, 7-(2-((2-cyclopropyl-4-(6-methyl-3,6-diazabicyclo[3.1.1]heptan-3-yl)phenyl)amino)-5-(trifluoromethyl)pyrimidin-4-yl)-4-(oxetan-3-yl)-3,4-dihydrothieno[2,3-f][1,4]thiazepin-5(2H)-one 1,1-dioxide] yielded an IC50 of no more than 5 nM. Compound `C[C@@H]1CN(c2ccc(Nc3ncc(C(F)(F)F)c(-c4cc5c(s4)C(=O)N(C4COC4)CCS5(=O)=O)n3)c(C3CC3)c2)C[C@H](C)N1` [Example 350, 7-(2-((2-cyclopropyl-4-((3S,5R)-3,5-dimethylpiperazin-1-yl)phenyl)amino)-5-(trifluoromethyl)pyrimidin-4-yl)-4-(oxetan-3-yl)-3,4-dihydrothieno[2,3-f][1,4]thiazepin-5(2H)-one 1,1-dioxide] has an IC50 of no more than 5 nM. In the case of `C[C@H]1CN(c2ccc(Nc3ncc(C(F)(F)F)c(-c4cc5c(s4)C(=O)N(C4COC4)CCS5(=O)=O)n3)c(C3CC3)c2)C[C@H](C)N1C` [Example 351, 7-(2-((2-cyclopropyl-4-((3S,5S)-3,4,5-trimethylpiperazin-1-yl)phenyl)amino)-5-(trifluoromethyl)pyrimidin-4-yl)-4-(oxetan-3-yl)-3,4-dihydrothieno[2,3-f][1,4]thiazepin-5(2H)-one 1,1-dioxide], the IC50 is reported as 5 to 10 nM. Work on `CN1CCN(c2ccc(Nc3ncc(C(F)(F)F)c(-c4cc5c(s4)C(=O)N(C4CC4)CCS5(=O)=O)n3)c(C3CC3)c2)C[C@@H]1CO` [Example 352, (R)-4-cyclopropyl-7-(2-((2-cyclopropyl-4-(3-(hydroxymethyl)-4-methylpiperazin-1-yl)phenyl)amino)-5-(trifluoromethyl)pyrimidin-4-yl)-3,4-dihydrothieno[2,3-f][1,4]thiazepin-5(2H)-one 1,1-dioxide] yielded an IC50 of no more than 5 nM. `CCc1cc(N2CCN[C@@H](C)C2)ccc1Nc1ncc(C(F)(F)F)c(-c2cc3c(s2)C(=O)N(C2CC2)CCS3(=O)=O)n1` [Example 353, (S)-4-cyclopropyl-7-(2-((2-ethyl-4-(3-methylpiperazin-1-yl)phenyl)amino)-5-(trifluoromethyl)pyrimidin-4-yl)-3,4-dihydrothieno[2,3-f][1,4]thiazepin-5(2H)-one 1,1-dioxide] was tested, and the IC50 was no more than 5 nM. `CCc1cc(N2CCN[C@@H](C)C2)ccc1Nc1ncc(C(F)(F)F)c(-c2cc3c(s2)C(=O)N(C2COC2)CCS3(=O)=O)n1` [Example 354, (S)-7-(2-((2-ethyl-4-(3-methylpiperazin-1-yl)phenyl)amino)-5-(trifluoromethyl)pyrimidin-4-yl)-4-(oxetan-3-yl)-3,4-dihydrothieno[2,3-f][1,4]thiazepin-5(2H)-one 1,1-dioxide] gave an IC50 of no more than 5 nM. In the case of `CCc1cc(N2CCN[C@@H](CO)C2)ccc1Nc1ncc(C(F)(F)F)c(-c2cc3c(s2)C(=O)N(C2COC2)CCS3(=O)=O)n1` [Example 355, (R)-7-(2-((2-ethyl-4-(3-(hydroxymethyl)piperazin-1-yl)phenyl)amino)-5-(trifluoromethyl)pyrimidin-4-yl)-4-(oxetan-3-yl)-3,4-dihydrothieno[2,3-f][1,4]thiazepin-5(2H)-one 1,1-dioxide], the IC50 is reported as no more than 5 nM. `CCc1cc(N2C[C@H](C)N[C@@H](C)C2)ccc1Nc1ncc(C(F)(F)F)c(-c2cc3c(s2)C(=O)N(C2CC2)CCS3(=O)=O)n1` [Example 356, 4-cyclopropyl-7-(2-((4-((3S,5S)-3,5-dimethylpiperazin-1-yl)-2-ethylphenyl)amino)-5-(trifluoromethyl)pyrimidin-4-yl)-3,4-dihydrothieno[2,3-f][1,4]thiazepin-5(2H)-one 1,1-dioxide] gave an IC50 of no more than 5 nM.
